The results in this text go back to patent publication US20190134005A1 (BioMarin Pharmaceutical Inc., priority 2016, published 2019).

The assay has as its target T1, human CGT (Homo sapiens, UniProt Q16880).
T1 sequence (Q16880 21-541): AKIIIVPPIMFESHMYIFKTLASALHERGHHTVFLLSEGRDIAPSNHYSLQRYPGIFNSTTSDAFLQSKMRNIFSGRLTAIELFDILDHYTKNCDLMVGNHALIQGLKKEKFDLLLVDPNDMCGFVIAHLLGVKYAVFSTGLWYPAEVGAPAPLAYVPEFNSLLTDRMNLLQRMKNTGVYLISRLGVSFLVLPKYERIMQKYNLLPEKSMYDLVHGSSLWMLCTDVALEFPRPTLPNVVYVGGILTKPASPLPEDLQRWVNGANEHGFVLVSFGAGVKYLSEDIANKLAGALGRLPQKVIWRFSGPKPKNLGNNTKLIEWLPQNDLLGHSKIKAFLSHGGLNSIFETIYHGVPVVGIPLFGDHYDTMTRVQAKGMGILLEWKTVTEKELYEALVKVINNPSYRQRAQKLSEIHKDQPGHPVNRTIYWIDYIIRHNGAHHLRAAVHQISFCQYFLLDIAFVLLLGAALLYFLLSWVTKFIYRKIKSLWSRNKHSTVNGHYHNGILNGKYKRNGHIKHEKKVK
Kind of assay: CGT Enzyme Assay (Biological Example 2, RapidFire/MS/MS method with 0.01% Tween 80 added). Type of assay: biochemical. The settings on record: enzymatic assay, CHO/CGT lysate. The procedure:
Full-length human CGT cDNA was cloned into the BamH1/Xho1 site of pcDNA3.1 (+) mammalian expression vector (V90-20, Invitrogen, Carlsbad, Calif.) and the plasmid was transfected into Chinese hamster ovary (CHO) cells. Lysate was prepared using M-PER (Mammalian Protein Extraction Reagent, ThermoFisher Scientific, Grand Island, N.Y.) in the presence of a protease inhibitor cocktail (P8340, Sigma, Saint Louis, Mo.). Each 100 mm dish (100% confluent, approximately 1×10^7 cells) was lysed with 250 μL of M-PER containing protease inhibitors. Protein concentration was determined using a Pierce BCA protein assay kit (ThermoFisher Scientific). […] The final concentration of DMSO was 0.5% in both compound-treated and mock-treated samples. Each individual reaction was diluted with 80 μL of methanol:acetronitrile (1:3) containing 5 μM N-docdecanoyl-NBD-galactosylceramide (internal standard) to stop the reaction. 200 μL H2O:acetonitile (1:1) was added to precipitate the protein. After sufficient mixing, the plates were centrifuged at 2469 g for 38 minutes, 200 μl of supernatant was transferred to a LC-MS 96-deep well plate and a second spin was performed at 2469 g for 10 minutes. The final supernatant was injected in triplicate for RapidFire/MS/MS analysis.
The quantitative analysis of C6-NBD-dihydro-ceramide and C6-NBD-dihydro-galactosylceramide was performed on a Rapid Fire 360 high-throughput mass spectrometry system (Agilent Technologies, Palo Alto, Calif.) coupled with a API4000^+ triple quadrupole mass spectrometer (Applied Biosystems, Concord, Ontario, Canada). RapidFire software packages, including RapidFire Control panel, RapidFire UI and RapidFire Integrator (Agilent Technologies), were used to control the RapidFire instrument and to process data. Analyst 1.6.2 software packages (Applied Biosystems) were used to control the MS system and acquire MS data. 10 μL of sample was loaded on a micro-scale C4 solid-phase extraction (SPE) cartridge (Agilent Technologies) and salts were removed using water supplemented with 0.1% formic acid at the flow rate of 1.5 mL/min for 3 sec. C6-NBD-dihydro-ceramide and C6-NBD-dihydro-galactosylceramide were co-eluted into the mass spectrometer using acetonitrile containing 0.1% formic acid at the flow rate of 1.0 mL/min for 3 sec. The total cycle time of one injection was 8 secs. The MS/MS detection was performed in ESI negative mode.
The C6-NBD-dihydro-galactosylceramide reading was normalized first by dividing the peak area of C6-NBD-dihydro-galactosylceramide by the peak area of the internal standard, N-docdecanoyl-NBD-galactosylceramide.

Each structure is given as a SMILES string. pIC50: −log10 of the molar value.

With `O=C1N(c2ccc(Cl)cc2)C2CCCCC2(c2cccc(OC(F)(F)F)c2)N1c1ccc(Cl)cc1` (stereo not shown) [Example 15-1, 1,3-bis(4-chlorophenyl)-3a-(3-(trifluoromethoxy)phenyl)octahydro-2H-benzo[d]imidazol-2-one], the pIC50 (as a rule, −log10 of the IC50, conventionally taken in molar units) was 4.52 to 5.00.

As to `O=C1N(c2ccc(Cl)cc2)[C@H](c2cccc(OC(F)(F)F)c2)C2(CCCC2)N1c1ccc(Cl)cc1` [Example 15-2, (R)-1,3-bis(4-chlorophenyl)-4-(3-(trifluoromethoxy)phenyl)-1,3-diazaspiro[4.4]nonan-2-one], the pIC50 is > 6.00.

With `O=C1N(c2ccc(Cl)cc2)[C@@H](c2cccc(OC(F)(F)F)c2)C2(CCCC2)N1c1ccc(Cl)cc1` [Example 15-3, (S)-1,3-bis(4-chlorophenyl)-4-(3-(trifluoromethoxy)phenyl)-1,3-diazaspiro[4.4]nonan-2-one], the pIC50 was 4.52 to 5.00. As to `O=C1N(c2ccc(Cl)cc2)[C@H]2CCC[C@@]2(c2cccc(C(F)F)c2)N1c1ccc(Cl)cc1` [Example 16-1, (3aS,6aS)-1,3-bis(4-chlorophenyl)-3a-(3-(difluoromethyl)phenyl)hexahydrocyclopenta[d]imidazol-2(1H)-one], the pIC50 was 4.52 to 5.00. To `O=C1N(c2ccc(Cl)cc2)[C@@H]2CCC[C@]2(c2cccc(C(F)F)c2)N1c1ccc(Cl)cc1` [Example 16-2, (3aR,6aR)-1,3-bis(4-chlorophenyl)-3a-(3-(difluoromethyl)phenyl)hexahydrocyclopenta[d]imidazol-2(1H)-one] belongs 4.52 to 5.00; to `CCC1(CC)[C@@H](c2cccc(OC(F)(F)F)c2)N(c2ccc(Cl)cc2)C(=O)N1c1ccc(Cl)cc1` [Example 17-1, (R)-1,3-bis(4-chlorophenyl)-4,4-diethyl-5-(3-(trifluoromethoxy)phenyl)imidazolidin-2-one], > 6.00; to `CCC1(CC)[C@H](c2cccc(OC(F)(F)F)c2)N(c2ccc(Cl)cc2)C(=O)N1c1ccc(Cl)cc1` [Example 17-2, (S)-1,3-bis(4-chlorophenyl)-4,4-diethyl-5-(3-(trifluoromethoxy)phenyl)imidazolidin-2-one], 5.00 to 6.00. For `O=C1N(c2ccc(Cl)cc2)C2CCCC2(c2cccc(O)c2)N1c1ccc(Cl)cc1` (stereo not shown) [Example 18] the value was 4.52 to 5.00; for `CC[C@]1(C)[C@@H](c2cccc(OC(F)(F)F)c2)N(c2ccc(Cl)cc2)C(=O)N1c1ccc(Cl)cc1` [Example 19-1, (4R,5R)-1,3-bis(4-chlorophenyl)-4-ethyl-4-methyl-5-(3-(trifluoromethoxy)phenyl)imidazolidin-2-one], 5.00 to 6.00; for `CC[C@]1(C)[C@H](c2cccc(OC(F)(F)F)c2)N(c2ccc(Cl)cc2)C(=O)N1c1ccc(Cl)cc1` [Example 19-2, (4R,5S)-1,3-bis(4-chlorophenyl)-4-ethyl-4-methyl-5-(3-(trifluoromethoxy)phenyl)imidazolidin-2-one], > 6.00. To `CC[C@@]1(C)[C@H](c2cccc(OC(F)(F)F)c2)N(c2ccc(Cl)cc2)C(=O)N1c1ccc(Cl)cc1` [Example 19-3, (4S,5S)-1,3-bis(4-chlorophenyl)-4-ethyl-4-methyl-5-(3-(trifluoromethoxy)phenyl)imidazolidin-2-one] belongs > 6.00. On to `CC[C@@]1(C)[C@@H](c2cccc(OC(F)(F)F)c2)N(c2ccc(Cl)cc2)C(=O)N1c1ccc(Cl)cc1` [Example 19-4, (4S,5R)-1,3-bis(4-chlorophenyl)-4-ethyl-4-methyl-5-(3-(trifluoromethoxy)phenyl)imidazolidin-2-one], for which the pIC50 is 5.00 to 6.00. For `CC1(C)[C@@H](c2cccc(OC(F)(F)F)c2)N(c2ccc(C(F)(F)F)cc2)C(=O)N1c1ccc(C(F)(F)F)cc1` [Example 20-1, (R)-4,4-dimethyl-5-(3-(trifluoromethoxy)phenyl)-1,3-bis(4-(trifluoromethyl)phenyl)imidazolidin-2-one] the value was > 6.00.
